Experimental data taken from article PMC9734138, “Structure of the AlgKX modification and secretion complex required for alginate production and biofilm attachment in Pseudomonas aeruginosa” (Nature Communications, 2022).
Where “and” joins values, the source holds several entries; their conditions need not be identical. Identical values can stand only once.

Columns and labels:
AlgXPp [1] = molecular target: T1, AlgXPp (Pseudomonas putida, UniProt Q88ND0); test: Acetylesterase activity assay, pNP-acetate, AlgXPp; assay type: biochemical; set-up: His6 (C); made in house; host or cells: E. coli Lemo21 (DE3); details: pNP-acetate pseudosubstrate; sample as labelled (AlgX alone, Man10 alone, AlgX+Man10); single technical replicates
Procedure: (§1) The assay was performed as previously described in refs. [19], [29] with minor modifications. Briefly, standard reactions contained 5 μM protein (AlgKPp, AlgXPp, or AlgKPp-AlgXPp complex) in 50 mM sodium HEPES pH 7.0 and 75 mM NaCl. Reactions were initiated with the addition of pNP-acetate dissolved in ethanol to 2.5 mM. Alginate substrates were added at a final concentration of 0.5 mg/mL. Alginate substrates were purified as previously described[62] from FRD1[66] and FRD462[67]. The hydrolysis and removal of an acetate group from pNP-acetate was monitored in real-time for 10 min at 405 nm for the appearance of p-nitrophenyl. The background hydrolysis rate of pNP-acetate in the absence of enzymes was measured and subtracted from reaction rates. For Supplementary Fig. 11b, a similar assay was performed as previously described in ref. [19], with minor modifications. Briefly, Briefly, standard reactions contained 5 μM protein (AlgKPp, AlgXPp, or AlgKPp-AlgXPp complex) in 50 mM sodium HEPES pH 7.0 and 75 mM NaCl. […] The hydrolysis and removal of an acetate group from 3-carboxyumbelliferyl acetate was monitored in real-time for 10 min using an excitation of 386 nm and an emission of 447 nm. The background hydrolysis rate of 3-carboxyumbelliferyl acetate in the absence of enzymes was measured and subtracted from reaction rates. Data were analysed using GraphPad Prism 9 (Dotmatics).
Target sequence in this assay (Q88ND0 25-479): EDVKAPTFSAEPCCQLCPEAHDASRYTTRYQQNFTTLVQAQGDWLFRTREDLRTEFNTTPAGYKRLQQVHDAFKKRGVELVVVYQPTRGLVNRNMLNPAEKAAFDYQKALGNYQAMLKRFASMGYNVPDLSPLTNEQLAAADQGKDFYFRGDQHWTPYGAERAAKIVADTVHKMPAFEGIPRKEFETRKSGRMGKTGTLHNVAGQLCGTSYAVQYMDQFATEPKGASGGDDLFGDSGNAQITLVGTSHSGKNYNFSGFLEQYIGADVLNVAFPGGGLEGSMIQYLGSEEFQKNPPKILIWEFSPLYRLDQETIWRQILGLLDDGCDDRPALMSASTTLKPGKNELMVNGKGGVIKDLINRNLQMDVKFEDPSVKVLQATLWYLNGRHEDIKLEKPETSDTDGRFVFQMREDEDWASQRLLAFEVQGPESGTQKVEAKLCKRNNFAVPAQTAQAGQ

AlgXPp [2] = molecular target: T1, AlgXPp; test: Acetylesterase activity assay, 3-carboxyumbelliferyl acetate, AlgX; assay type: biochemical; set-up: His6 (C); made in house; host or cells: E. coli Lemo21 (DE3); details: AlgX alone; linear regression of raw values minus buffer blank vs time (s); exp1 and exp2, triplicates; Supp. Fig. 14b
Procedure: as §1
Target sequence in this assay (Q88ND0 25-479): as above

AlgKXPp complex = molecular target: T2, AlgKXPp complex (Pseudomonas putida, UniProt Q88NC7+Q88ND0); test: ESI-MS alginate binding assay, AlgKXPp complex (binding model fit); details: for Ka (M^−1) (AlgKXPp), apparent association constant: ESI-MS, 200 mM aqueous ammonium acetate, pH 7, 25 °C, errors one standard deviation; for fraction of AlgKXPp bound to ligand: ammonium acetate (200 mM, pH 7.0), mean, n = 3
T2 construct: Induced cells containing either pET26b P. putida AlgK^33–484 or pET24b P. putida AlgX^∆Nterm; His6 (C); made in house; host or cells: E. coli BL21 (DE3) CodonPlus (AlgK) and E. coli Lemo21 (DE3) (AlgX)
Procedure: (§2) AlgXPp and AlgKPp stock solutions were buffer exchanged into 200 mM aqueous ammonium acetate (pH 7) using a 10 kDa cut-off Amicon 0.5 mL microconcentrators (EMD, Millipore, Billerica, MA). Stock solutions of oligosaccharides were prepared by dissolving a known amount of solid compound in Milli-Q water and stored at −20 °C until used. Nanoelectrospray (nanoESI) mass spectrometry measurements were performed on a Q Exactive Orbitrap (Orbitrap) mass spectrometer (Thermo Fisher Scientific, Bremen, Germany) and on a Q Exactive Ultra-High Mass Range Orbitrap mass spectrometer (Thermo Fisher Scientific, Bremen, Germany), both equipped with a nanoflow ESI source. NanoESI was performed by applying a voltage of ~0.8 kV to a platinum wire inserted into the nanoESI tip, which was produced from a borosilicate glass capillary (1.0 mm o.d., 0.78 mm i.d.) pulled to ~2 μm o.d. using a P − 1000 micropipette puller (Sutter Instruments, Novato, CA). The inlet capillary of the MS was heated to 120 °C, the S-lens RF level was set at 100, automatic gain control target was set at 1 × 10^6 with a maximum injection time of 200 ms. All MS data were acquired and processed using Thermo Xcalibur 4.1 software.
(§3) 3b AlgXPpL⇌AlgXPp+L,Ka,xL=[AlgXPpL]/AlgXPp[L] 3c AlgKXPp⇌AlgKPp+AlgXPp,Ka,kx=[AlgKXPpL]/AlgKPp[AlgXPp] 3d AlgKXPpL⇌AlgKXPp+L,Ka,kxL=[AlgKXPL]/AlgKXPpLL
(§4) The corresponding mass balance equations are shown below:4a [L]0=[L]+[AlgKPpL]+[AlgXPpL]+[AlgKXPpL] 4b [AlgKPp]0=[AlgKPp]+[AlgKPpL]+[AlgKXPp]+[AlgKXPpL] 4c [AlgXPp]0=[AlgXPp]+[AlgXPpL]+[AlgKXPp]+[AlgKXPpL] where […], […], and [L]0 are initial concentrations of AlgKPp, AlgXPp, and oligosaccharide ligand L; Ka,kL, Ka,xL, and Ka,kx are association constant values determined as described above, and Ka,kxL is unknown parameter found by the fitting of the model to experimental data.

AlgKXPp = AlgKXPp (Pseudomonas putida, UniProt Q88NC7+Q88ND0); test: NanoESI-MS ligand titration of the AlgK-AlgX mixture, Ka,kxL fitted from the ligand-bound fraction of the complex with a coupled-equilibria model, 200 mM aqueous ammonium acetate pH 7, 25 °C by the table title (21 °C in the methods).; assay type: binding; details: n = 3; read-out: Ka (M^-1) (AlgKXPp)
Procedure: as §2
The Ka,kx for the interaction of AlgKPp and AlgXPp with the formation of AlgKXPp complex was obtained using the Slow Mixing Mode (SLOMO) ESI-MS assay. Briefly, ~2 µL of a solution of AlgXPp (5 µM) and AlgKPp (3–10 µM) was introduced into the nanoESI tip, followed by injection of 10 µL of solution of AlgXPp (5 µM) and AlgKPp (45 µM). The binding measurements were carried out at 21 °C; time-resolved mass spectra were averaged over 1 min intervals and the sum of the charge state-normalized abundances of the […] and AlgKXPp complex ions were calculated automatically using the SWARM software (https://github.com/pkitov/CUPRA-SWARM)[72]. The corrected (for response factors) abundances of AlgXPp and AlgKXPp species were used to calculate R/(R+1) values for AlgKPp (designated as L) and AlgXPp (designated as P) interaction and association constant Ka,kx was found using Eq. (1) (Ka,kx in this case designated as Ka in Eq. (1)).
as §3, §4

AlgKPp [3] = molecular target: T3, AlgKPp (Pseudomonas putida, UniProt Q88NC7); test: Direct nanoESI-MS binding assay of the single proteins with reference protein correction for nonspecific binding, 200 mM aqueous ammonium acetate pH 7, 25 °C by the table title (21 °C in the methods).; set-up: gene algK; details: read-out: Ka (M^-1) (AlgKPp); Ka (M^-1) (AlgXPp)
Procedure: as §2
(§5) Association constants (Ka,kL and Ka,xL) for interactions of AlgKPp and AlgXPp with oligosaccharide ligands were obtained using the direct ESI-MS assay[68],[69]. The binding measurements were carried out at 21 °C, and the equilibrium mixtures were prepared by mixing aliquots of the stock solutions of proteins and ligands in aqueous ammonium acetate (200 mM). ESI-MS measurements were performed after a 1 h incubation time period. All mass spectra were corrected, when needed, for the occurrence of nonspecific carbohydrate-protein binding during the ESI process using the reference protein method. Ka,kL and Ka,xL values were determined from the abundance ratio (R) of the ligand-bound (PL) to free protein (P) ions (P can be AlgKPp or AlgXPp), after correction for nonspecific ligand binding, and the initial concentrations of protein ([P]0) and ligand ([L]0), Eq. (1):1 R/R+1=KaP0+KaL0+1−(1−KaL0+KaP0)^2+4KaL0/2KaP0 where R is taken to be equal to the corresponding equilibrium concentration ratio ([PL]/[P]) in solution, Eq. (2):2 R=∑Ab(PL)/∑Ab(P)=[PL]/[P] and Ka is Ka,kL or Ka,xL.

AlgXPp [4] = molecular target: T1, AlgXPp; test: as above; set-up: gene algX; details: read-out: Ka (M^-1) (AlgKPp); Ka (M^-1) (AlgXPp)
Procedure: as §2, §5
Target sequence in this assay (Q88ND0 whole entry): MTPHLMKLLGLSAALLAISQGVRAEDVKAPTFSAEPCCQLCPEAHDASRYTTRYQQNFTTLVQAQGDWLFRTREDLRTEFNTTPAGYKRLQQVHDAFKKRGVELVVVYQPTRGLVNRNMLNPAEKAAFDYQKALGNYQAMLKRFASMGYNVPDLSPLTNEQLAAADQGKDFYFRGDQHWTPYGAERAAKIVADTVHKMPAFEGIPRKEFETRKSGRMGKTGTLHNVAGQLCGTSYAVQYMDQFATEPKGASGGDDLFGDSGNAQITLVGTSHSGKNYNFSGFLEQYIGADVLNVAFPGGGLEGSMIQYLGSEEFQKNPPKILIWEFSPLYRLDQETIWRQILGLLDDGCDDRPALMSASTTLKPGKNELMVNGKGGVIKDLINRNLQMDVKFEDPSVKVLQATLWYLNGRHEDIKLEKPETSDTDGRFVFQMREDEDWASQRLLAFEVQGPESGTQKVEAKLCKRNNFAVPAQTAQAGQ

AlgXPp [5] = molecular target: T1, AlgXPp; test: Direct ESI-MS alginate binding assay, AlgXPp; set-up: His6 (C); made in house; host or cells: E. coli Lemo21 (DE3); details: 200 mM aqueous ammonium acetate, pH 7, 25 °C, errors one standard deviation
Procedure: (§6) AlgXPp and AlgKPp stock solutions were buffer exchanged into 200 mM aqueous ammonium acetate (pH 7) using a 10 kDa cut-off Amicon 0.5 mL microconcentrators (EMD, Millipore, Billerica, MA). Stock solutions of oligosaccharides were prepared by dissolving a known amount of solid compound in Milli-Q water and stored at −20 °C until used. Nanoelectrospray (nanoESI) mass spectrometry measurements were performed on a Q Exactive Orbitrap (Orbitrap) mass spectrometer (Thermo Fisher Scientific, Bremen, Germany) and on a Q Exactive Ultra-High Mass Range Orbitrap mass spectrometer (Thermo Fisher Scientific, Bremen, Germany), both equipped with a nanoflow ESI source. […]
(§7) Association constants (Ka,kL and Ka,xL) for interactions of AlgKPp and AlgXPp with oligosaccharide ligands were obtained using the direct ESI-MS assay[68],[69]. […] Ka,kL and Ka,xL values were determined from the abundance ratio (R) of the ligand-bound (PL) to free protein (P) ions (P can be AlgKPp or AlgXPp), after correction for nonspecific ligand binding, and the initial concentrations of protein ([P]0) and ligand ([L]0), Eq. (1):1 R/R+1=KaP0+KaL0+1−(1−KaL0+KaP0)^2+4KaL0/2KaP0 where R is taken to be equal to the corresponding equilibrium concentration ratio ([PL]/[P]) in solution, Eq. (2):2 R=∑Ab(PL)/∑Ab(P)=[PL]/[P] and Ka is Ka,kL or Ka,xL.
Target sequence in this assay (Q88ND0 25-479): as the sequence (Q88ND0 25-479) above

AlgKPp [6] = molecular target: T3, AlgKPp; test: Direct ESI-MS alginate binding assay, AlgKPp; set-up: Induced cells containing either pET26b P. putida AlgK^33–484 or pET24b P. putida AlgX^∆Nterm; His6 (C); made in house; host or cells: E. coli BL21 (DE3) CodonPlus; details: 200 mM aqueous ammonium acetate, pH 7, 25 °C, errors one standard deviation, nb = no binding detected
Procedure: as §6, §7

[7] = initial ligand concentration 50 µM
[8] = initial ligand concentration 100 µM
[9] = initial ligand concentration 155 µM
[10] = initial ligand concentration 211 µM
[11] = initial ligand concentration 265 µM
[12] = initial ligand concentration 322 µM

T3 sequence (Q88NC7 33-484): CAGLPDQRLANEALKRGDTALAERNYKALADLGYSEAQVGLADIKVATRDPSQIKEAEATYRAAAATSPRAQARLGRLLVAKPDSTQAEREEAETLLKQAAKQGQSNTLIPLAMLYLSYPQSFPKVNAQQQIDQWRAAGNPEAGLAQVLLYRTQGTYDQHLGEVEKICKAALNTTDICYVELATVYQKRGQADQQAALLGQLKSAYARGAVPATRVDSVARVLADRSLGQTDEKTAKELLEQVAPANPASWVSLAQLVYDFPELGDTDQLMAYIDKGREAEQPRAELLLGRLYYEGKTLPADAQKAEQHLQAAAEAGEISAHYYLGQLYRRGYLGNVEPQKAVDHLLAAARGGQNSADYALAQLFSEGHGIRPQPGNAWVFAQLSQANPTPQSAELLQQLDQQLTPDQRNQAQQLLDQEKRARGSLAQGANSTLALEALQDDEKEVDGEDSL
T2 sequence (Q88ND0 25-479): as the sequence (Q88ND0 25-479) above
T2 sequence (Q88NC7 33-484): as the sequence (Q88NC7 33-484) above
Chain of AlgKXPp (Q88ND0 whole entry): as the sequence (Q88ND0 whole entry) above
Chain of AlgKXPp (Q88NC7 33-484): as the sequence (Q88NC7 33-484) above

Row | Compound | slope values: rate of acetylesterase activity, absorbance value at 405 nm per second (AlgXPp [1]) | slope values used in graph (AlgXPp [2]) | Ka (M^−1) (AlgKXPp), apparent association constant (AlgKXPp complex) | fraction of AlgKXPp bound to ligand (AlgKXPp complex; [7]) | fraction of AlgKXPp bound to ligand (AlgKXPp complex; [8]) | fraction of AlgKXPp bound to ligand (AlgKXPp complex; [9]) | fraction of AlgKXPp bound to ligand (AlgKXPp complex; [10]) | fraction of AlgKXPp bound to ligand (AlgKXPp complex; [11]) | fraction of AlgKXPp bound to ligand (AlgKXPp complex; [12]) | Kd (AlgKXPp) [mM] | Kd (AlgKPp [3]) [mM] | Kd (AlgXPp [4]) [mM] | Ka (M^−1) (AlgXPp), apparent association constant (AlgXPp [5]) | Ka (M^−1) (AlgKPp), apparent association constant (AlgKPp [6])
1 | AlgX: P. putida KT2440 AlgX 1–479, His-tagged terminal alginate acetyltransferase | 5.128e-5 and 6.734e-5 and 4.103e-5 | 20818 and 20884 and 19338 and 14321 and 14083 and 15487 |  |  |  |  |  |  |  |  |  |  |  | 
2 | CCCO[C@@H]1O[C@H](C(=O)O)[C@@H](O[C@@H]2O[C@H](C(=O)O)[C@@H](O[C@@H]3O[C@H](C(=O)O)[C@@H](O[C@@H]4O[C@H](C(=O)O)[C@@H](O[C@@H]5O[C@H](C(=O)O)[C@@H](O[C@@H]6O[C@H](C(=O)O)[C@@H](O)[C@H](O)[C@@H]6O)[C@H](O)[C@@H]5O)[C@H](O)[C@@H]4O)[C@H](O)[C@@H]3O)[C@H](O)[C@@H]2O)[C@H](O)[C@@H]1O [ManA6] |  |  | (7.8 ± 0.8) × 10^2 M^−1 | 0.04 | 0.08 | 0.11 | 0.11 | 0.16 | 0.22 | 1.28 | 3.23 | 5.26 | (1.9 ± 0.7) × 10^2 M^−1 | (3.1 ± 0.5) × 10^2 M^−1
3 | CCCO[C@@H]1O[C@H](C(=O)O)[C@@H](O[C@@H]2O[C@H](C(=O)O)[C@@H](O[C@@H]3O[C@H](C(=O)O)[C@@H](O[C@@H]4O[C@H](C(=O)O)[C@@H](O[C@@H]5O[C@H](C(=O)O)[C@@H](O[C@@H]6O[C@H](C(=O)O)[C@@H](O[C@@H]7O[C@H](C(=O)O)[C@@H](O)[C@H](O)[C@@H]7O)[C@H](O)[C@@H]6O)[C@H](O)[C@@H]5O)[C@H](O)[C@@H]4O)[C@H](O)[C@@H]3O)[C@H](O)[C@@H]2O)[C@H](O)[C@@H]1O [ManA7] |  |  | (10 ± 1.0) × 10^2 M^−1 | 0.028 | 0.08 | 0.15 | 0.20 | 0.21 | 0.24 |  |  |  | (2.6 ± 0.3) × 10^2 M^−1 | (4.2 ± 0.4) × 10^2 M^−1
